Key:
Format in all cases: physicochemical
[1] = Radiochemical purity (TLC) of 123I-IBZM solutions stored at ambient temperature, GA vs AA stabiliser (Example 1); settings: at the moment of use; stabiliser named as label
Method: ^123I-IBZM was prepared by the method of Bobeldijk et al [J. Lab. Comp. Radiopharm., 28, 1247-1256 (1990)]. A small series of ^123I-IBZM solutions was prepared: to each vial 200 μl of ^123I-IBZM in EtOH (925 MBq/cm^3) was added and subsequently 2.3 ml of aqueous phosphate buffer solution optionally containing a stabiliser, in such a way that the resulting ethanol content was 8% and the radioactive concentration at calibration time was 74 MBq/cm^3 (2 mCi/ml).
The vials were stored at ambient temperature and the radiochemical purity (RCP) was determined by thin layer chromatography (TLC) at the time of dilution with phosphate buffer and at 24 and 48 hours afterwards.

[2] = Discolouration / heat sterilisation stability of stabiliser stock solutions
Description: A preferred biocompatible carrier medium for the stabiliser stock solution comprises an aqueous solution at a pH suitable for intravenous administration. A preferred such aqueous solution is a buffer solution, most preferably phosphate buffer. When the radiopharmaceutical is ^123I-IBZM, the pH of the buffered stock solution is suitably pH 5 to 8, preferably 5.4 to 7, most preferably 5.7 to 6.3. As noted above, gentisic acid solutions tend to suffer from discoloration problems. […] The stock solutions may be prepared under non-sterile conditions, followed by terminal sterilisation using e.g. gamma-irradiation, autoclaving, dry heat or chemical treatment (e.g. with ethylene oxide). Alternatively, the stock solutions may be prepared under aseptic manufacture conditions to give the desired sterile, pyrogen-free product. Preferably the sterile stock solutions are prepared by terminal sterilisation, most preferably by autoclaving. Such autoclaving involves steam heating at over 121° C., so represents stress conditions wherein unwanted chemical reactions might be expected. […] It is therefore surprising that the lack of discolouration for gentisic acid can be maintained under such conditions.

[3] = Radiochemical purity of 123I-IBZM solutions made with autoclaved stabiliser stock solutions (Example 3); settings: stock solution sterilised in an autoclave at 121 °C
Method: Stock solutions of the stabilisers shown were prepared, purged with argon gas and then sealed under argon in a septum-sealed vial with a Teflon™ coated rubber stopper.
The solutions were sterilised by autoclaving for 15 minutes at 121° C., and then allowed to cool to ambient temperature before use.
A small series of ^123I-IBZM solutions was prepared: to each vial ^123I-IBZM in EtOH (925 MBq/cm^3) was added and subsequently an aqueous phosphate buffer solution containing a stabiliser as specified in Table 3 (below), in such a way that the resulting ethanol content was 8% and the radioactive concentration at calibration time was 74 MBq/cm^3 (2 mCi/ml). The RCP of each vial was determined 3 hours after preparation and after storage at room temperature for 51 hours.

[4] = Radiochemical purity of 123I-IBZM vs gentisic acid concentration in stock solution (Example 4, FIG. 1); settings: 0 to 0.39% w/v gentisic acid, pH 5.8, 74 MBq/ml, room temperature
Method: A phosphate buffer solution (300 ml) was divided into 6 vials each of 50 ml with various amounts of gentisic acid, corresponding to w/v concentrations of 0%, 0.024%, 0.050%, 0.10%, 0.20% and 0.39%. The pH was checked, and if necessary adjusted by the addition of NaOH to obtain a pH of 5.8 (±0.1). The vials were stoppered with Teflon™ coated rubber stoppers and sterilised for 15 min at 121° C.
An ethanolic solution of ^123I-IBZM (activity concentration at REF: 925 MBq/ml (25 mCi/ml)) was divided over 6 vials and into each was added an aliquot of the 6 gentisic acid buffer solutions from step (a) to obtain a final solution with a total activity content of 185 MBq (5 mCi), at a RAC of 74 MBq/ml (2 mCi/ml) and an ethanol content of 8%. The vials were stoppered with a Teflon™ coated rubber stopper and stored at room temperature. The RCP was measured at various time points after EOS.

[5] = Radiochemical purity of 123I-mIBG in phosphate buffer with stabilisers (Example 5); settings: compared with benzyl alcohol
Method: Two series of 5 vials of ^123I-mIBG solutions were prepared: to each vial an aliquot of 0.5 cm^3 of freshly prepared ^123I-mIBG in (stabiliser-free) Phosphate buffer (360 MBq/cm^3) was added and subsequently an aliquot of 2.0 cm^3 of an aqueous phosphate buffer solution containing a stabiliser as specified in Table 4 (below), followed by mixing. The final mixtures were not heat sterilized. The total activity per vial was 185 MBq with an RAC of 74 MBq/ml. The specific activity was 992 GBq/g mIBG base. Vials A1 to E1 were stored at 40° C. and vials A2 to E2 at 20° C. The RCP was determined at the EOS (end of synthesis) and at 3, 20 and 45 hours thereafter.

Row | principal radiochemical impurity (free 123I-iodide) in the 123I-IBZM preparation [1] [%] | stabilisation of 123I-IBZM (in words) [3] | discolouration of solutions on autoclave sterilisation ([2]; oxygen not excluded, autoclave) | Compound | stability to heat sterilisation (autoclaving, over 121 °C) in buffer solution ([2]; buffer solution) | stabilisation of 123I-IBZM vs stabiliser concentration (in words) [4] | stabilisation of 123I-MIBG (in words) [5] | discolouration of sterile solutions in aqueous buffer on storage ([2]; oxygen gas in the environment minimised)
1 | 4 to 5 | – | – | O=C1O[C@H]([C@@H](O)CO)C(O)=C1O [ascorbic acid, reference compound] | does not withstand such heat sterilisation in buffer solution | – | – | –
2 | 2 to 3 | still an effective stabiliser | visible discolouration does occur | O=C(O)c1cc(O)ccc1O [gentisic acid, 2,5-dihydroxybenzoic acid] | – | little or no additional stabilisation benefit is obtained | effective at much lower concentrations than benzyl alcohol | do not discolour even on storage for more than a year

— patent US8188296B2, “Gentisic acid for stabilising 123-I radiopharmaceuticals” (GE Healthcare Limited, priority 2005, dated 2012)
